The text below walks through data of ChEMBL document CHEMBL1156812, “Novel synthesis of the hexahydroimidazo[1,5b]isoquinoline scaffold: application to the synthesis of glucocorticoid receptor modulators” (J Med Chem, 2010).

Data set [1] addresses T1, Glucocorticoid receptor (Homo sapiens, UniProt P04150).
T1 sequence (P04150 whole entry): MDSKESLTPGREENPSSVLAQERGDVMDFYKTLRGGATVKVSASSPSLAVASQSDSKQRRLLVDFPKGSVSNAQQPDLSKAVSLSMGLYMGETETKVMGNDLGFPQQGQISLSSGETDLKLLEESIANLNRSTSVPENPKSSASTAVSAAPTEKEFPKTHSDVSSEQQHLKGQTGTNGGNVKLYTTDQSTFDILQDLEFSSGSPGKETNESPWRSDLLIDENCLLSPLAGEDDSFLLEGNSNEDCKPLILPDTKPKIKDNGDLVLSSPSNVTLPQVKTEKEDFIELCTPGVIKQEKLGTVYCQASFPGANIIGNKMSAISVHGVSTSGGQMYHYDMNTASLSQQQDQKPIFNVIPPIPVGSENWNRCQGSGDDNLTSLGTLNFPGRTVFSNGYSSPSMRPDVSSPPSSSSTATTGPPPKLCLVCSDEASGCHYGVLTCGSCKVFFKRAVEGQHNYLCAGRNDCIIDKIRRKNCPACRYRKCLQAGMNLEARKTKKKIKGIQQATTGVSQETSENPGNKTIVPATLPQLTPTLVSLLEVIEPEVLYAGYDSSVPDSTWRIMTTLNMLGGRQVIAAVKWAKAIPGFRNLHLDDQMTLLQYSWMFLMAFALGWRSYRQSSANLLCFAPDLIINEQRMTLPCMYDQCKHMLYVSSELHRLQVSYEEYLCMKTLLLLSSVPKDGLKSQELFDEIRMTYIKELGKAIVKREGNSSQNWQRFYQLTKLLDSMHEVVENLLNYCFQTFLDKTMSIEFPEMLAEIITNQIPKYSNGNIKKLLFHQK
Description: Displacement of GS-red from human glucocorticoid receptor by fluorescent polarization assay.

The target of data set [2] is T1, Glucocorticoid receptor. Kind of data set: Transrepression activity at glucocorticoid receptor expressed in human A549 cells assessed as inhibition of PMA-induced AP1 activity after 6 hrs by luciferase reporter gene assay. It counts as cell-based. In general terms: In a reporter assay the amount or activity of a reporter protein is the signal.
For data set [3], the target named is T1, Glucocorticoid receptor. Kind of data set: Transrepression activity at glucocorticoid receptor expressed in human A549 cells assessed as inhibition of IL-1-beta-induced NF-kappaB dependent E-selection promoter activation after 6 hrs by luciferase reporter gene based ELAM assay. It counts as cell-based.
Data set [4] concerns the target T1, Glucocorticoid receptor. Kind of data set: Transactivation of GAL-4 tagged glucocorticoid receptor ligand binding domain expressed in human HeLa cells assessed as NP1 activation by luciferase reporter gene assay. It counts as cell-based.
The target in a further data set is T2, Androgen receptor (Homo sapiens, UniProt P10275).
T2 sequence (P10275 whole entry): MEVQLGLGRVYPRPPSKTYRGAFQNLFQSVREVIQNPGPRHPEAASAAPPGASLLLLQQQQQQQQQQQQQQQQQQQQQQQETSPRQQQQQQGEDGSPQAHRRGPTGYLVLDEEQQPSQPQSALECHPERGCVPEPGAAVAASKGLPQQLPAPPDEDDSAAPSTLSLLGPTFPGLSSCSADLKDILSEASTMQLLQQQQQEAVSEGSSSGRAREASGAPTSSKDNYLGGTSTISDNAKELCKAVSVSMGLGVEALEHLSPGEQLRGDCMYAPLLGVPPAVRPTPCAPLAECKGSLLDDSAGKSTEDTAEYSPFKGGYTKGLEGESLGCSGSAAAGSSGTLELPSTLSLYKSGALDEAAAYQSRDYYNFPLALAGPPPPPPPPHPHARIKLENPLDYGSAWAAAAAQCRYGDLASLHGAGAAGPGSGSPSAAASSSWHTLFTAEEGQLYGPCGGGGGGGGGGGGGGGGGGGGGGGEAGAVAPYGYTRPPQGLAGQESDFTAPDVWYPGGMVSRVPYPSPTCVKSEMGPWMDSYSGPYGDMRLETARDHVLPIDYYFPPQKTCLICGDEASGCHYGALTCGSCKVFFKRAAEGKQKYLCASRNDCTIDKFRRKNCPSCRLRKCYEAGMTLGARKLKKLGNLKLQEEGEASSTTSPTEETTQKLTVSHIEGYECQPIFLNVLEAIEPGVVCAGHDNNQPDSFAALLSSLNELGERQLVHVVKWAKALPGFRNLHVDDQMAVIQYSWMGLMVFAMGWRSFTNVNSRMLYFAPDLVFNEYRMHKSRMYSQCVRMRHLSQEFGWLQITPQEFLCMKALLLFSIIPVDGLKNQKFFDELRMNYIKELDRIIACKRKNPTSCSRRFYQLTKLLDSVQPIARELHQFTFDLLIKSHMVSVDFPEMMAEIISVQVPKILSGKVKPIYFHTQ
Description: Binding affinity to androgen receptor.

For another data set, the target named is T3, Progesterone receptor (Homo sapiens, UniProt P06401).
T3 sequence (P06401 whole entry): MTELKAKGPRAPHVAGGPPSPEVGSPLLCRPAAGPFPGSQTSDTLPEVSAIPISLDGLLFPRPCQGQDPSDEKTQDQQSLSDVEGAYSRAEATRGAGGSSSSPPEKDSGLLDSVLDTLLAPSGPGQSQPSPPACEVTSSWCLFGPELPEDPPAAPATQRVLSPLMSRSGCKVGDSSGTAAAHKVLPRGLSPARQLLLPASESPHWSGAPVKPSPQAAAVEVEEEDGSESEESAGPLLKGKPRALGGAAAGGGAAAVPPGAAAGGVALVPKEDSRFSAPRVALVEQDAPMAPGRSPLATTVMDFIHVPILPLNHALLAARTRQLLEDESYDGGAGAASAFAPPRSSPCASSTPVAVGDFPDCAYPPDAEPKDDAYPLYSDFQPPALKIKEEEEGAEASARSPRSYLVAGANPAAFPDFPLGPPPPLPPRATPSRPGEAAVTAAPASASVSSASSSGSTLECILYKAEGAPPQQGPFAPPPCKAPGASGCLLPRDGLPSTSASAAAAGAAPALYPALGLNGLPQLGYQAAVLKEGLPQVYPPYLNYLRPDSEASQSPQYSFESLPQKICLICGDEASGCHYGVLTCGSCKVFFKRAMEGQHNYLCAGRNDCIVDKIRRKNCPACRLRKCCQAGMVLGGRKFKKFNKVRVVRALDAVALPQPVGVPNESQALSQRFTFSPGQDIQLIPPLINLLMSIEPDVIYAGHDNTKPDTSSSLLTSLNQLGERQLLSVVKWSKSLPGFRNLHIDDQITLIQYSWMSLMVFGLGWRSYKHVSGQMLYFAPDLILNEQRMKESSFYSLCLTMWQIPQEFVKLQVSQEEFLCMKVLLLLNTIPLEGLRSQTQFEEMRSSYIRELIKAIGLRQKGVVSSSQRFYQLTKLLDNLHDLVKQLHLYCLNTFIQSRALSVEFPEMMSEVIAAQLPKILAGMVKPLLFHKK
Description: Binding affinity to progesterone receptor.

Data set [5] can be described thus: Metabolic stability in human liver microsomes assessed as compound remaining at 3 uM after 10 mins. It counts as ADME, Microsome. The following applies: read-out: Stability. Background: Liver microsomes are a subcellular fraction often used to study metabolism.
A short description of data set [6]: Metabolic stability in rat liver microsomes assessed as compound remaining at 3 uM after 10 mins. It counts as ADME, Microsome. As to conditions: read-out: Stability.
Data set [7] can be described thus: Metabolic stability in mouse liver microsomes assessed as compound remaining at 3 uM after 10 mins. It is filed as ADME, Microsome. As to conditions: read-out: Stability.

pEC50, pIC50, pKi: −log10 of the molar value.

For the compound `C=CC[C@@](C)(O)[C@H]1CCCC2=Cc3c(-c4ccc(F)cc4)ncn3C[C@@]21C`, the pKi on Glucocorticoid receptor [1] is 8.37; on Progesterone receptor it was 5.74. Moreover, the pEC50 on Glucocorticoid receptor [2] was 7.24; on Glucocorticoid receptor [3] it was 7.10; at Glucocorticoid receptor [4], less than 5.30. This compound had a pIC50 at Androgen receptor of less than 5.40.

Regarding `C[C@]12Cn3cnc(-c4ccc(F)cc4)c3C=C1CCC[C@@H]2[C@](C)(O)c1ccc(Cl)cc1`, the pKi on Glucocorticoid receptor [1] was 8.70; at Progesterone receptor it was 6.62. Also, the pEC50 on Glucocorticoid receptor [2] is 8.12; on Glucocorticoid receptor [3], 7.72; on Glucocorticoid receptor [4], 6.16. This compound also gave a pIC50 on Androgen receptor of less than 5.40. Besides, the remaining at 10 min, 3 µM in [5] amounted to 56%; in data set [6], 51%; in data set [7], 73%.

As for `Cc1ccsc1[C@@](C)(O)[C@H]1CCCC2=Cc3c(-c4ccc(F)cc4)ncn3C[C@@]21C`, the pKi on Glucocorticoid receptor [1] is 8.70; at Progesterone receptor it was 6.88. The pEC50 at Glucocorticoid receptor [2] was 7.54; at Glucocorticoid receptor [3], 7.52; at Glucocorticoid receptor [4], 6.42. On Androgen receptor, this compound had a pIC50 of less than 5.40. In addition, the remaining at 10 min, 3 µM in data set [5] was determined as 3%; in data set [6] it was 2%; in [7], 21%.

For the compound `C[C@]12Cn3cnc(-c4ccc(F)cc4)c3C=C1CCC[C@@H]2[C@](C)(O)c1ccc(Cl)s1`, the pKi was 8.40 at Glucocorticoid receptor [1] and 6.39 on Progesterone receptor. For the same compound, the pEC50 is 7.96 on Glucocorticoid receptor [2], 7.96 at Glucocorticoid receptor [3] and 6.60 on Glucocorticoid receptor [4]. This compound also gave a pIC50 at Androgen receptor of less than 5.40.

In the case of `C[C@]12Cn3cnc(-c4ccc(F)cc4)c3C=C1CCC[C@@H]2[C@](C)(O)c1cccs1`, the pKi on Glucocorticoid receptor [1] was 8.70; at Progesterone receptor it was 6.64. The results for the pEC50 on Glucocorticoid receptor [2] and at Glucocorticoid receptor [3] were 7.28 and 7.39, respectively. The compound further had a pIC50 on Androgen receptor of less than 5.40.

Turning to `C[C@]12Cn3cnc(-c4ccc(F)cc4)c3C=C1CCC[C@@H]2[C@H](O)c1ccc(F)cc1` (stereo in doubt; 19), the pKi is 7.68 at Glucocorticoid receptor [1] and 6.35 on Progesterone receptor. Moreover, the pEC50 at Glucocorticoid receptor [2] is 6.57; at Glucocorticoid receptor [3], 6.61.

A word on the pKi: it is the Ki on a negative log10 scale, so that one unit is a factor of ten. Low readings indicate a large Ki, high ones a small Ki. What is called pEC50 is −log10 of the EC50, conventionally taken in molar units. The term pIC50 denotes −log10 of the IC50, conventionally taken in molar units. High values mean a low IC50, low ones a high IC50.
